Key:
[1] = tested on: PC3 prostate cancer cells; assay: Cell proliferation assay in prostate cancer PC3 cells; type: cell-based; details: for inhibition at 10 µM: Homo sapiens, PC-3
Procedure: Cell Proliferation Assay:
PC3 prostate cancer cells were cultured in DMEM/F-12 HAM Mixture (Sigma D8437), 10% Fetal Bovine Serum (Atlanta Biological S11150). Before the treatment, 3.5×10^4 cells per well were split into 12-well plates. After 24 h, 10 μM of each compound was added to each well. DMSO was used as a control. This experiment was done in triplicate. Cell viability and number were analyzed using Vi-Cell XR Cell Viability Analyzer (Beckman Coulter).

`COCc1c(O)ccc2c(=O)c(-c3ccccc3OC)coc12` [Isoflavonoid 11c, 7-Hydroxy-8-(methoxymethyl)-3-(2-methoxyphenyl)-4H-chromen-4-one] showed a melting point of 164 to 166 °C and an inhibition at 10 µM [1] of 0%.
For “3-(4-Methoxyphenyl)-2,11-methyl-6a,7,8,9a-tetrahydro-4H,6H-furo[2,3-b]pyrano[3,2-g]chromen-4-one [Isoflavonoid 25g]”, the “Inhibition at 10 μM (%)” value ([1]; Table 3, Diels-Alder adducts, inhibition of proliferation, PC3 cells, 10 μM) was 61 ± 2%.
Work on `COc1ccccc1-c1coc2c(CO)c(O)ccc2c1=O` [Isoflavonoid 9c, 7-Hydroxy-8-(hydroxymethyl)-3-(2-methoxyphenyl)-4H-chromen-4-one] yielded a melting point of 163 to 165 °C and an inhibition at 10 µM [1] of 0%.
With `COc1ccc(-c2coc3c(C)c(OC(C)=O)c(COC(C)=O)cc3c2=O)cc1` [Isoflavonoid 6c, [7-(Acetyloxy)-3-(4-methoxyphenyl)-8-methyl-4-oxo-4H-chromen-6-yl]methyl acetate] the melting point was 136 to 138 °C.
In the case of `Cc1oc2c3c(ccc2c(=O)c1-c1ccc(Cl)cc1)OC1OCCCC1C3` (stereo not shown) [Isoflavonoid 21i, 3-(4-Chlorophenyl)-2-methyl-10,11,11a,12-tetrahydro-4H,7aH,9H-dipyrano[2,3-b:2′,3′-f]chromen-4-one], the melting point is reported as 205 to 206 °C and the inhibition at 10 µM [1] is reported as 74 ± 3%.
With `COc1ccccc1-c1coc2c(COC(C)=O)c(OC(C)=O)ccc2c1=O` [Isoflavonoid 7c, 7-(Acetoxy)-8-(acetoxymethyl)-3-(2-methoxyphenyl)-4H-chromen-4-one] the inhibition at 10 µM [1] was 20.6 ± 3.8%.
Molecule `COc1ccc(-c2c(C)oc3c4c(ccc3c2=O)OC2OCCCC2C4)cc1OC` (stereo not shown) [Isoflavonoid 21h, 3-(3,4-Dimethoxyphenyl)-2-methyl-10,11,11a,12-tetrahydro-4H,7aH,9H-dipyrano[2,3-b:2′,3′-f]chromen-4-one] has a melting point of 209 to 210 °C and an inhibition at 10 µM [1] of 44 ± 3%.
In the case of `COc1ccc(-c2c(C)oc3c(CC4CCCC4=O)c(O)ccc3c2=O)cc1OC` (stereo not shown) [Isoflavonoid 23h, 3-(3,4-Dimethoxyphenyl)-7-hydroxy-2-methyl-8-[(2-oxocyclopentyl)methyl]-4H-chromen-4-one], the melting point is reported as 88 to 90 °C.
Molecule `COc1ccc(-c2c(C)oc3c4c(ccc3c2=O)OC2OCCC2C4)cc1OC` (stereo not shown) [Isoflavonoid 20h, 3-(3,4-Dimethoxyphenyl)-2-methyl-9,10,10a,11-tetrahydro-4H,7aH-furo[2,3-b]pyrano[2,3-f]chromen-4-one] has a melting point of 217 to 219 °C.
Molecule `O=c1c(-c2ccc(Cl)cc2)coc2c3c(ccc12)OC1OCCCC1C3` (stereo not shown) [Isoflavonoid 21e, 3-(4-Chlorophenyl)-10,11,11a,12-tetrahydro-4H,7aH,9H-dipyrano[2,3-b:2′,3′-f]chromen-4-one] has a melting point of 195 to 197 °C and an inhibition at 10 µM [1] of 44 ± 4%.
`Cc1oc2c3c(ccc2c(=O)c1-c1ccc(Cl)cc1)OC1OCCC1C3` (stereo not shown) [Isoflavonoid 20i, 3-(4-Chlorophenyl)-2-methyl-9,10,10a,11-tetrahydro-4H,7aH-furo[2,3-b]pyrano[2,3-f]chromen-4-one] showed a melting point of 266 to 268 °C.
With `COc1ccc(-c2c(C)oc3c4c(ccc3c2=O)OC2OCCC2C4)cc1` (stereo not shown) [Isoflavonoid 20g, 3-(4-Methoxyphenyl)-2-methyl-9,10,10a,11-tetrahydro-4H,7aH-furo[2,3-b]pyrano[2,3-f]chromen-4-one] the melting point was 227 to 229 °C.
In the case of `COc1ccccc1-c1coc2cc(OC)c(CO)c(O)c2c1=O` [Isoflavonoid 8a, 5-Hydroxy-6-(hydroxymethyl)-7-methoxy-3-(2-methoxyphenyl)-4H-chromen-4-one], the melting point is reported as 100 to 101 °C and the inhibition at 10 µM [1] is reported as 14.6 ± 3.2%.
Molecule `Cc1oc2c3c(ccc2c(=O)c1-c1ccccc1)OC1OCCCC1C3` (stereo not shown) [Isoflavonoid 21f, 2-Methyl-3-phenyl-10,11,11a,12-tetrahydro-4H,7aH,9H-dipyrano[2,3-b:2′,3′-f]chromen-4-one] has a melting point of 165 to 167 °C.
In the case of `COCc1c(OC)cc2occ(-c3ccc(OC)cc3)c(=O)c2c1O` [Isoflavonoid 10b, 5-Hydroxy-7-methoxy-6-(methoxymethyl)-3-(4-methoxyphenyl)-4H-chromen-4-one], the melting point is reported as 180 to 181 °C and the inhibition at 10 µM [1] is reported as 0%.
With `O=c1c(-c2ccc3c(c2)OCO3)coc2c3c(ccc12)OC1OCCCC1C3` (stereo not shown) [Isoflavonoid 21c, 3-(1,3-Benzodioxol-5-yl)-10,11,11a,12-tetrahydro-4H,7aH,9H-dipyrano[2,3-b:2′,3′-f]chromen-4-one] the melting point was 179 to 181 °C and the inhibition at 10 µM [1] was 68%.
Work on `O=c1c(-c2ccc3c(c2)OCO3)coc2c3c(ccc12)OC1(O)CCCCC1C3` (stereo not shown) [Isoflavonoid 24c, 3-(1,3-Benzodioxol-5-yl)-7a-hydroxy-8,9,10,11,11a,12-hexahydro-4H,7aH-pyrano[2,3-a]xanthen-4-one] yielded a melting point of 197 °C.
In the case of `COc1ccc(-c2coc3c(CO)c(OC)cc(O)c3c2=O)cc1` [Isoflavonoid 9b, 5-Hydroxy-8-(hydroxymethyl)-7-methoxy-3-(4-methoxyphenyl)-4H-chromen-4-one], the melting point is reported as 139 to 141 °C and the inhibition at 10 µM [1] is reported as 79.5 ± 3.6%.
`COCc1c(OC)cc(O)c2c(=O)c(-c3ccccc3OC)coc12` [Isoflavonoid 11a, 5-Hydroxy-7-methoxy-8-(methoxymethyl)-3-(2-methoxyphenyl)-4H-chromen-4-one] gave a melting point of 154 to 155 °C and an inhibition at 10 µM [1] of 0%.
With `COc1ccc(-c2c(C)oc3c4c(ccc3c2=O)OC2=C(C4)C(=O)CC(C)(C)C2)cc1` [Isoflavonoid 22g, 3-(4-Methoxyphenyl)-2,9,9-trimethyl-8,9,10,12-tetrahydro 4H,11H-pyrano[2,3-a]xanthene-4,11-dione] the melting point was 236 to 237 °C.
In the case of `COc1ccc(-c2coc3c4c(ccc3c2=O)OC2OCCC2C4)cc1OC` (stereo not shown) [Isoflavonoid 20b, 3-(3,4-Dimethoxyphenyl)-9,10,10a,11-tetrahydro-4H,7aH-furo[2,3-b]pyrano[2,3-f]chromen-4-one], the melting point is reported as 193 to 195 °C.
For `Cc1oc2c3c(ccc2c(=O)c1-c1ccccc1)OC1OCCC1C3` (stereo not shown) [Isoflavonoid 20f, 2-Methyl-3-phenyl-9,10,10a,11-tetrahydro-4H,7aH-furo[2,3-b]pyrano[2,3-f]chromen-4-one], the melting point was 181 to 182 °C.
For `COc1ccc(-c2c(C)oc3c(CC4CCCC4=O)c(O)ccc3c2=O)cc1` (stereo not shown) [Isoflavonoid 23g, 7-Hydroxy-3-(4-methoxyphenyl)-2-methyl-8-[(2-oxocyclopentyl)methyl]-4H-chromen-4-one], the melting point was 210 to 211 °C.
In the case of `COc1ccccc1-c1coc2cc(OC)c(COC(C)=O)c(OC(C)=O)c2c1=O` [Isoflavonoid 6a, 5-Acetoxy-6-(acetoxymethyl)-7-methoxy-3-(2-methoxyphenyl)-4H-chromen-4-one], the inhibition at 10 µM [1] is reported as 17.1 ± 5.9%.
Molecule `COc1ccc(-c2coc3c4c(ccc3c2=O)OC2=C(C4)C(=O)CC(C)(C)C2)cc1` [Isoflavonoid 22a, 3-(4-Methoxyphenyl)-9,9-dimethyl-8,9,10,12-tetrahydro-4H,11H-pyrano[2,3-a]xanthene-4,11-dione] has a melting point of 223 to 225 °C.
`COc1ccc(-c2coc3c(C)c(O)c(CO)cc3c2=O)cc1` [Isoflavonoid 8c, 7-Hydroxy-6-(hydroxymethyl)-3-(4-methoxyphenyl)-8-methyl-4H-chromen-4-one] showed a melting point of 153 to 155 °C.
For `COc1ccc(-c2coc3c(C)c4c(cc3c2=O)CC2=C(CC(C)(C)CC2=O)O4)cc1` [Isoflavonoid 26a, 3-(4-Methoxyphenyl)-9,9,12-trimethyl-6,8,9,10-tetrahydro-4H,7H-pyrano[3,2-b]xanthene-4,7-dione], the melting point was 230 to 232 °C.
Molecule `COc1ccc(-c2c(C)oc3c4c(ccc3c2=O)OC2(O)CCCCC2C4)cc1OC` (stereo not shown) [Isoflavonoid 24h, 3-(3,4-Dimethoxyphenyl)-7a-hydroxy-2-methyl-8,9,10,11,11a,12-hexahydro-4H,7aH-pyrano[2,3-a]xanthen-4-one] has a melting point of 193 to 194 °C.
For `Cc1oc2c3c(ccc2c(=O)c1-c1ccccc1)OC1=C(C3)C(=O)CC(C)(C)C1` [Isoflavonoid 22f, 2,9,9-trimethyl-3-phenyl-8,9,10,12-tetrahydro-4H,11H-pyrano[2,3-a]xanthene-4,11-dione], the melting point was 265 to 266 °C.
Work on `COc1ccc(-c2c(C)oc3c(C)c4c(cc3c2=O)CC2=C(CC(C)(C)CC2=O)O4)cc1` [Isoflavonoid 26g, 3-(4-Methoxyphenyl)-2,9,9,12-tetramethyl-6,8,9,10-tetrahydro-4H,7H-pyrano[3,2-b]xanthene-4,7-dione] yielded a melting point of 270 to 272 °C.
In the case of `COCc1cc2c(=O)c(-c3ccc(OC)cc3)coc2c(C)c1O` [Isoflavonoid 10c, 7-Hydroxy-6-(methoxymethyl)-3-(4-methoxyphenyl)-8-methyl-4H-chromen-4-one], the melting point is reported as 143 to 145 °C.
With `COc1ccc(-c2coc3cc(OC)c(COC(C)=O)c(OC(C)=O)c3c2=O)cc1` [Isoflavonoid 6b, 5-Acetoxy-6-(acetoxymethyl)-7-methoxy-3-(4-methoxyphenyl)-4H-chromen-4-one] the inhibition at 10 µM [1] was 51.7 ± 5.7%.
Work on `COc1ccc(-c2coc3c(COC(C)=O)c(OC)cc(OC(C)=O)c3c2=O)cc1` [Isoflavonoid 7b, 5-Acetoxy-8-(acetoxymethyl)-7-methoxy-3-(4-methoxyphenyl)-4H-chromen-4-one] yielded an inhibition at 10 µM [1] of 20.2 ± 2%.
With `CC1(C)CC(=O)C2=C(C1)Oc1ccc3c(=O)c(-c4ccc5c(c4)OCO5)coc3c1C2` [Isoflavonoid 22c, 3-(1,3-Benzodioxol-5-yl)-9,9-dimethyl-8,9,10,12-tetrahydro-4H,11H-pyrano[2,3-a]xanthene-4,11-dione] the melting point was 258 to 260 °C.
For `O=c1c(-c2ccc3c(c2)OCCO3)coc2c3c(ccc12)OC1OCCC1C3` (stereo not shown) [Isoflavonoid 20d, 3-(2,3-Dihydro-1,4-benzodioxin-6-yl)-9,10,10a,11-tetrahydro-4H,7aH-furo[2,3-b]pyrano[2,3-f]chromen-4-one], the melting point was 188 to 189 °C.
For `COCc1c(O)ccc2c(=O)c(-c3ccc(OC)cc3)c(C)oc12` [Isoflavonoid 11e, 7-Hydroxy-8-(methoxymethyl)-3-(4-methoxyphenyl)-2-methyl-4H-chromen-4-one], the melting point was 215 to 217 °C (dec.).

Source: patent US9718799B2, “3-aryl-4H-chromene-4-ones as antineoplastic agents for the treatment of cancer” (The University of Kentucky Research Foundation, priority 2015, dated 2017)
